According to PubChem BioAssay AID248 (DTP/NCI, 2004):
Where “and” joins values, the source holds several entries; their conditions need not be identical. Identical values can stand only once. Toxic doses and inconclusive results are not listed. Rule as the data show it: active = T/C of 150% or more; inactive = T/C below 125%.

Test system: L1210 leukemia ip in BDF1 mice, survival T/C
Assay: NCI In Vivo Anticancer Drug Screen. Data for tumor model L1210 Leukemia (intraperitoneal) in B6D2F1 (BDF1) mice
Details: endpoint: mean survival time, higher = longer survival
Method in brief: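 In this screen, tumor-bearing mice given compound are compared to those given vehicle, and their survival values are reported as a treated-to-control quotient.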

[1] = dose: 12.5 mg/kg/injection, schedule: Q01DX009 (ip), vehicle: saline
[2] = dose: 25.0 mg/kg/injection, schedule: Q01DX009 (ip), vehicle: saline
[3] = dose: 75.0 mg/kg/injection, schedule: Q01DX001 (ip), vehicle: carboxymethylcellulose (CMC)
[4] = dose: 100.0 mg/kg/injection, schedule: Q04DX002 (ip), vehicle: Klucel (hydroxypropylcellulose) (HPC)
[5] = dose: 200.0 mg/kg/injection, schedule: Q04DX002 (ip), vehicle: Klucel (hydroxypropylcellulose) (HPC)
[6] = dose: 400.0 mg/kg/injection, schedule: Q04DX002 (ip), vehicle: Klucel (hydroxypropylcellulose) (HPC)
[7] = dose: 100.0 mg/kg/injection, schedule: Q04DX003 (ip), vehicle: Klucel (hydroxypropylcellulose) (HPC)
[8] = dose: 200.0 mg/kg/injection, schedule: Q04DX003 (ip), vehicle: Klucel (hydroxypropylcellulose) (HPC)
[9] = dose: 100.0 mg/kg/injection, schedule: Q04DX003 (ip), vehicle: carboxymethylcellulose (CMC)
[10] = dose: 200.0 mg/kg/injection, schedule: Q04DX003 (ip), vehicle: carboxymethylcellulose (CMC)
[11] = dose: 400.0 mg/kg/injection, schedule: Q04DX003 (ip), vehicle: carboxymethylcellulose (CMC)
[12] = dose: 100.0 mg/kg/injection, schedule: Q01DX009 (ip), vehicle: Klucel (hydroxypropylcellulose) (HPC)
[13] = dose: 200.0 mg/kg/injection, schedule: Q01DX009 (ip), vehicle: Klucel (hydroxypropylcellulose) (HPC)
[14] = dose: 400.0 mg/kg/injection, schedule: Q01DX009 (ip), vehicle: Klucel (hydroxypropylcellulose) (HPC)
[15] = dose: 100.0 mg/kg/injection, schedule: Q01DX009 (ip), vehicle: saline with Tween-80
[16] = dose: 200.0 mg/kg/injection, schedule: Q01DX009 (ip), vehicle: saline with Tween-80
[17] = dose: 400.0 mg/kg/injection, schedule: Q01DX009 (ip), vehicle: saline with Tween-80

Measured: T/C

NC(CO)Cc1ccccc1 (stereo not drawn)
inactive: dose: 6.25 mg/kg/injection, schedule: Q01DX009 (ip), vehicle: saline 107 % of control | dose: 6.25 mg/kg/injection, schedule: Q04DX003 (ip), vehicle: saline 100 % of control | [1] 96 % of control | dose: 12.5 mg/kg/injection, schedule: Q04DX003 (ip), vehicle: saline 93 % of control | [2] 102 % of control | dose: 25.0 mg/kg/injection, schedule: Q04DX003 (ip), vehicle: saline 105 % of control | dose: 35.0 mg/kg/injection, schedule: Q01DX009 (ip), vehicle: saline 88 % of control | dose: 55.0 mg/kg/injection, schedule: Q01DX009 (ip), vehicle: saline 98 % of control | [3] 86 % of control | dose: 80.0 mg/kg/injection, schedule: Q01DX009 (ip), vehicle: saline 96 % of control and 98 % of control | dose: 120.0 mg/kg/injection, schedule: Q01DX009 (ip), vehicle: saline 103 % of control | dose: 150.0 mg/kg/injection, schedule: Q01DX001 (ip), vehicle: carboxymethylcellulose (CMC) 91 % of control | dose: 180.0 mg/kg/injection, schedule: Q01DX009 (ip), vehicle: saline 121 % of control | dose: 300.0 mg/kg/injection, schedule: Q01DX001 (ip), vehicle: carboxymethylcellulose (CMC) 88 % of control

CCOC(=O)c1[nH]c2ccccc2c1CN(CC)CC
inactive: [3] 94 % of control

COc1ccc(-n2cccc2)cc1
inactive: dose: 100.0 mg/kg/injection, schedule: Q01DX001 (ip), vehicle: steriod suspending solution 95 % of control | [4] 90 % of control | dose: 200.0 mg/kg/injection, schedule: Q01DX001 (ip), vehicle: steriod suspending solution 100 % of control | [5] 90 % of control | dose: 400.0 mg/kg/injection, schedule: Q01DX001 (ip), vehicle: steriod suspending solution 106 % of control | [6] 94 % of control

COc1ccc(-c2cc(=O)c3c(O)cc(O)c(-c4cc(-c5cc(=O)c6c(O)cc(OC)cc6o5)ccc4OC)c3o2)cc1
inactive: dose: 55.0 mg/kg/injection, schedule: Q01DX Z (ip), vehicle: methylcellulose (MC) 98 % of control | dose: 83.0 mg/kg/injection, schedule: Q01DX Z (ip), vehicle: methylcellulose (MC) 92 % of control | dose: 125.0 mg/kg/injection, schedule: Q01DX Z (ip), vehicle: methylcellulose (MC) 93 % of control

CN/N=C/c1ccc(C(=O)NC(C)C)cc1
inactive: dose: 25.0 mg/kg/injection, schedule: Q04DX003 (ip), vehicle: Klucel (hydroxypropylcellulose) (HPC) 98 % of control | dose: 50.0 mg/kg/injection, schedule: Q04DX003 (ip), vehicle: Klucel (hydroxypropylcellulose) (HPC) 102 % of control | [7] 102 % of control | [8] 109 % of control

N#C/C(=C/c1ccncc1)C(N)=O
inactive: dose: 100.0 mg/kg/injection, schedule: Q04DX003 (ip), vehicle: saline with Tween-80 98 % of control | dose: 200.0 mg/kg/injection, schedule: Q04DX003 (ip), vehicle: saline with Tween-80 94 % of control | dose: 400.0 mg/kg/injection, schedule: Q04DX003 (ip), vehicle: saline with Tween-80 99 % of control

O=C1C2C3CCC(O3)C2C(=O)N1CCOS(=O)(=O)c1ccc(Cl)cc1 (stereo not drawn)
inactive: dose: 75.0 mg/kg/injection, schedule: Q01DX009 (ip), vehicle: carboxymethylcellulose (CMC) 93 % of control | [9] 100 % of control | dose: 150.0 mg/kg/injection, schedule: Q01DX009 (ip), vehicle: carboxymethylcellulose (CMC) 94 % of control | [10] 102 % of control | dose: 300.0 mg/kg/injection, schedule: Q01DX009 (ip), vehicle: carboxymethylcellulose (CMC) 91 % of control | [11] 96 % of control

Cc1ccc(C)c(NC(=O)N(Cc2ccccc2)Cc2ccccc2)c1
inactive: [12] 94 % of control | [13] 91 % of control | [14] 96 % of control

C/C=C1\CN(C)[C@H]2Cc3c([nH]c4ccccc34)[C@@H](c3cc4[nH]c5c(c4cc3OC)CCN3C[C@H]4C[C@H](CC)[C@H]3[C@@]5(C(=O)OC)C4)C[C@H]1C2C(=O)OC (stereo partly drawn)
inactive: dose: 30.0 mg/kg/injection, schedule: Q01DX Z (ip), vehicle: water 106 % of control | dose: 45.0 mg/kg/injection, schedule: Q01DX Z (ip), vehicle: water 100 % of control and 102 % of control | dose: 45.0 mg/kg/injection, schedule: Q02DX Z (ip), vehicle: water 101 % of control | dose: 60.0 mg/kg/injection, schedule: Q01DX Z (ip), vehicle: water 96 % of control and 101 % of control | dose: 60.0 mg/kg/injection, schedule: Q02DX Z (ip), vehicle: water 104 % of control | dose: 70.0 mg/kg/injection, schedule: Q02DX Z (ip), vehicle: water 102 % of control | dose: 75.0 mg/kg/injection, schedule: Q01DX Z (ip), vehicle: water 100 % of control | dose: 90.0 mg/kg/injection, schedule: Q01DX Z (ip), vehicle: water 100 % of control

O=C(Nc1cc2c(cc1Br)OCO2)C(Cl)Cl
inactive: [15] 95 % of control | [16] 120 % of control | [17] 92 % of control

O=C(Nc1cccc(Cl)c1)Oc1ccc(Cl)cc1Cc1ccccc1
inactive: dose: 100.0 mg/kg/injection, schedule: Q01DX009 (ip), vehicle: carboxymethylcellulose (CMC) 95 % of control and 91 % of control | [4] 121 % of control | dose: 100.0 mg/kg/injection, schedule: Q04DX002 (ip), vehicle: carboxymethylcellulose (CMC) 100 % of control | [9] 94 % of control | dose: 200.0 mg/kg/injection, schedule: Q01DX009 (ip), vehicle: carboxymethylcellulose (CMC) 95 % of control and 97 % of control | [5] 102 % of control | dose: 200.0 mg/kg/injection, schedule: Q04DX002 (ip), vehicle: carboxymethylcellulose (CMC) 97 % of control and 107 % of control | [10] 97 % of control | dose: 400.0 mg/kg/injection, schedule: Q01DX009 (ip), vehicle: carboxymethylcellulose (CMC) 93 % of control and 97 % of control | [6] 97 % of control | dose: 400.0 mg/kg/injection, schedule: Q04DX002 (ip), vehicle: carboxymethylcellulose (CMC) 98 % of control and 100 % of control | [11] 94 % of control

O=C(O)COc1ccccc1-c1ccccc1Cl
inactive: [7] 98 % of control | [8] 90 % of control

CCCCCCCCCCCC[Si](CCCCCCCCCCCC)(c1ccccc1)c1ccccc1
inactive: [15] 91 % of control | [16] 93 % of control | [17] 96 % of control

O=C(Nc1ccccc1[N+](=O)[O-])c1ccccc1
inactive: [15] 111 % of control | [16] 106 % of control | [17] 106 % of control

Cc1ccc(S(=O)(=O)OCCN(CCOS(=O)(=O)c2ccc(C)cc2)S(=O)(=O)c2ccc(C)cc2)cc1
inactive: [12] 94 % of control | [7] 94 % of control | [13] 89 % of control | [8] 91 % of control | [14] 96 % of control | dose: 400.0 mg/kg/injection, schedule: Q04DX003 (ip), vehicle: Klucel (hydroxypropylcellulose) (HPC) 91 % of control

C=CCC1(OC(C)=O)CCN(C)CC1
inactive: dose: 75.0 mg/kg/injection, schedule: Q01DX001 (ip), vehicle: saline 113 % of control

CCCCCc1[nH]c(=O)[nH]c(=O)c1N=Nc1ccccc1
inactive: dose: 100.0 mg/kg/injection, schedule: Q01DX001 (ip), vehicle: saline with Tween-80 98 % of control | dose: 200.0 mg/kg/injection, schedule: Q01DX001 (ip), vehicle: saline with Tween-80 97 % of control | dose: 400.0 mg/kg/injection, schedule: Q01DX001 (ip), vehicle: saline with Tween-80 100 % of control

C=CC[N+]12CCCC1C(=C)CC2 (stereo not drawn)
inactive: [1] 106 % of control | [2] 100 % of control | dose: 50.0 mg/kg/injection, schedule: Q01DX009 (ip), vehicle: saline 97 % of control and 106 % of control

O=C(O)c1ccccc1C(=O)NCc1ccco1
inactive: dose: 50.0 mg/kg/injection, schedule: Q01DX001 (ip), vehicle: other 94 % of control | dose: 100.0 mg/kg/injection, schedule: Q01DX001 (ip), vehicle: other 105 % of control | dose: 200.0 mg/kg/injection, schedule: Q01DX001 (ip), vehicle: other 105 % of control | dose: 400.0 mg/kg/injection, schedule: Q01DX001 (ip), vehicle: other 100 % of control
